The values that follow come from article PMC9986241 (Signal Transduction and Targeted Therapy, 2023).

A word on the bioavailability: it is the share of a dose that reaches the circulation, judged against a reference dose that is usually intravenous. Low values mean poor availability, high ones good availability.

For one series, the target named is T1, ARK5(h) (Homo sapiens, UniProt O60285).
T1 construct: purchased Eurofins KinaseProfiler
The experiment in a line: KinaseProfiler enzyme profiling. The format is biochemical. Summed up:
(§1)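 Tested at one concentration (100 nM erianin), activity was measured in vitro across 70 kinases, with duplicate determinations per kinase.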

A further series has as its target T2, Aurora-A(h) (Homo sapiens, UniProt O14965).
T2 construct: purchased Eurofins KinaseProfiler
The experiment in a line: KinaseProfiler enzyme profiling. The format is biochemical. Summed up: as §1

The next series deals with T3, Aurora-B(h) (Homo sapiens, UniProt Q96GD4).
T3 construct: purchased Eurofins KinaseProfiler
T3 sequence (Q96GD4 whole entry): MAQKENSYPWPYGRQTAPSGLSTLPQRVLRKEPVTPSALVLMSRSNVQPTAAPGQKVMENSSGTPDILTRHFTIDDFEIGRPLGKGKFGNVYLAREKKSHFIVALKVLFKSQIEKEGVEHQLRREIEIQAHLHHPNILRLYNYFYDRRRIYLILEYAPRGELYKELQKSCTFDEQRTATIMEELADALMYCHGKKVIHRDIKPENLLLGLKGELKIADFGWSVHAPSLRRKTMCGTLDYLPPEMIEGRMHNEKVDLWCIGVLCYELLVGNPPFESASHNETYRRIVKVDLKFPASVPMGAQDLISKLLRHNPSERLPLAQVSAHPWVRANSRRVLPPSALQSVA
Description: KinaseProfiler enzyme profiling. In kind it is biochemical. Summed up:
as §1

The target of a further series is T4, Bmx(h) (Homo sapiens, UniProt P51813).
T4 construct: purchased Eurofins KinaseProfiler
Description: KinaseProfiler enzyme profiling. In kind it is biochemical. In outline:
as §1

The next series deals with T5, CDK7/cyclinH(h) (Homo sapiens, UniProt P50613).
T5 construct: purchased Eurofins KinaseProfiler
The experiment in a line: KinaseProfiler enzyme profiling. In kind it is biochemical. Summed up:
as §1

The target of another series is T6, CK2(h) (Homo sapiens, UniProt P68400).
T6 construct: purchased Eurofins KinaseProfiler
Description: KinaseProfiler enzyme profiling. The format is biochemical. Summed up:
as §1

The target of another series is T7, DAPK1(h) (Homo sapiens, UniProt P53355).
T7 construct: purchased Eurofins KinaseProfiler
Description: KinaseProfiler enzyme profiling. In kind it is biochemical. Summed up: as §1

Another series deals with T8, DDR2(h) (Homo sapiens, UniProt Q16832).
T8 construct: purchased Eurofins KinaseProfiler
Description: KinaseProfiler enzyme profiling. The format is biochemical. Summed up: as §1

For the next series, the target named is T9, EGFR(T790M)(h) (Homo sapiens, UniProt P00533, T790M).
T9 construct: purchased Eurofins KinaseProfiler
Description: KinaseProfiler enzyme profiling. The format is biochemical. In outline: as §1

In another series the target is T10, EphB2(h) (Homo sapiens, UniProt P29323).
T10 construct: purchased Eurofins KinaseProfiler
Description: KinaseProfiler enzyme profiling. In kind it is biochemical. In outline: as §1

For a further series, the target named is T11, FGFR2(h) (Homo sapiens, UniProt P21802).
T11 construct: purchased Eurofins KinaseProfiler
Description: KinaseProfiler enzyme profiling. The format is biochemical. In outline: as §1

Another series concerns the target T12, FGFR3(h) (Homo sapiens, UniProt P22607).
T12 construct: purchased Eurofins KinaseProfiler
Description: KinaseProfiler enzyme profiling. In kind it is biochemical. Summed up: as §1

Another series deals with T13, MKK4(m) (Mus musculus, UniProt P47809).
T13 construct: purchased Eurofins KinaseProfiler
The experiment in a line: KinaseProfiler enzyme profiling. In kind it is biochemical. In outline:
as §1

The target of a further series is T14, Mer(h) (Homo sapiens, UniProt Q12866).
T14 construct: purchased Eurofins KinaseProfiler
T14 sequence (Q12866 21-999): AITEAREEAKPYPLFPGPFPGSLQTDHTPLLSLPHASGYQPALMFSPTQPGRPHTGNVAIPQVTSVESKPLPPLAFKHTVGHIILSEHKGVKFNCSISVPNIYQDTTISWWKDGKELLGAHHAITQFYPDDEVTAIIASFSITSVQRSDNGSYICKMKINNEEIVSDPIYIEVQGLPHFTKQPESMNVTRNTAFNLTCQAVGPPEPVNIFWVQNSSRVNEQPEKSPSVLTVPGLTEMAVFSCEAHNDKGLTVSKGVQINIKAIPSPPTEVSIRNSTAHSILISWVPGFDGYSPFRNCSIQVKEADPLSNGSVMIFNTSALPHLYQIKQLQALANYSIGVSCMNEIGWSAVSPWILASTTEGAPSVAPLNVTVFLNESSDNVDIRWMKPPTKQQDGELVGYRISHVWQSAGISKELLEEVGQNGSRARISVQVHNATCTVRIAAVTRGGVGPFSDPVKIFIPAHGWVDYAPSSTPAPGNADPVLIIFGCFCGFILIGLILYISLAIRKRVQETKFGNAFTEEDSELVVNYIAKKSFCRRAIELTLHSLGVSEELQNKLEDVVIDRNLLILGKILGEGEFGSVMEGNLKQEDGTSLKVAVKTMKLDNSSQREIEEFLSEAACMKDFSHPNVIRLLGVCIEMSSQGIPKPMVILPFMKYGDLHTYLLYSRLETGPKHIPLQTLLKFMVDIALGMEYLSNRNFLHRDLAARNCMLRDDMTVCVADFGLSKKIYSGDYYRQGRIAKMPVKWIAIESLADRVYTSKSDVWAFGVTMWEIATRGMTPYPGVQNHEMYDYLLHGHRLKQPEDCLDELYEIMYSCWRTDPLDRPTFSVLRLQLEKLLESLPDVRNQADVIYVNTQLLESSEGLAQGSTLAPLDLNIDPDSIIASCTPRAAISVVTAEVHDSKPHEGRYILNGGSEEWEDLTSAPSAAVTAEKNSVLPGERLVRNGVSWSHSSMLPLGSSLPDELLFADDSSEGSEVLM
The experiment in a line: KinaseProfiler enzyme profiling. In kind it is biochemical. In outline:
as §1

The next series relates to CK1(y). The experiment in a line: KinaseProfiler enzyme profiling. The format is biochemical, yeast. As to conditions: 10 µM. The text has this: Enzyme profiling services were provided by KinaseProfiler™ (Eurofin, Brussels, Belgium). […] For more details, refer to the manufacturer’s instructions (www.eurofinsdiscoveryservices.com).
Another series concerns the target T15, CDK5/p25(h) (Homo sapiens, UniProt Q00535).
T15 construct: purchased Eurofins KinaseProfiler
Description: KinaseProfiler enzyme profiling. The format is biochemical. Conditions: 100 nM. In outline: as §1

The next series deals with T16, EphA4(h) (Homo sapiens, UniProt P54764).
T16 construct: purchased Eurofins KinaseProfiler
Description: KinaseProfiler enzyme profiling. In kind it is biochemical. As to conditions: 100 nM. Summed up:
as §1

In the next series the target is T17, EphB3(h) (Homo sapiens, UniProt P54753).
T17 construct: purchased Eurofins KinaseProfiler
T17 sequence (P54753 34-998): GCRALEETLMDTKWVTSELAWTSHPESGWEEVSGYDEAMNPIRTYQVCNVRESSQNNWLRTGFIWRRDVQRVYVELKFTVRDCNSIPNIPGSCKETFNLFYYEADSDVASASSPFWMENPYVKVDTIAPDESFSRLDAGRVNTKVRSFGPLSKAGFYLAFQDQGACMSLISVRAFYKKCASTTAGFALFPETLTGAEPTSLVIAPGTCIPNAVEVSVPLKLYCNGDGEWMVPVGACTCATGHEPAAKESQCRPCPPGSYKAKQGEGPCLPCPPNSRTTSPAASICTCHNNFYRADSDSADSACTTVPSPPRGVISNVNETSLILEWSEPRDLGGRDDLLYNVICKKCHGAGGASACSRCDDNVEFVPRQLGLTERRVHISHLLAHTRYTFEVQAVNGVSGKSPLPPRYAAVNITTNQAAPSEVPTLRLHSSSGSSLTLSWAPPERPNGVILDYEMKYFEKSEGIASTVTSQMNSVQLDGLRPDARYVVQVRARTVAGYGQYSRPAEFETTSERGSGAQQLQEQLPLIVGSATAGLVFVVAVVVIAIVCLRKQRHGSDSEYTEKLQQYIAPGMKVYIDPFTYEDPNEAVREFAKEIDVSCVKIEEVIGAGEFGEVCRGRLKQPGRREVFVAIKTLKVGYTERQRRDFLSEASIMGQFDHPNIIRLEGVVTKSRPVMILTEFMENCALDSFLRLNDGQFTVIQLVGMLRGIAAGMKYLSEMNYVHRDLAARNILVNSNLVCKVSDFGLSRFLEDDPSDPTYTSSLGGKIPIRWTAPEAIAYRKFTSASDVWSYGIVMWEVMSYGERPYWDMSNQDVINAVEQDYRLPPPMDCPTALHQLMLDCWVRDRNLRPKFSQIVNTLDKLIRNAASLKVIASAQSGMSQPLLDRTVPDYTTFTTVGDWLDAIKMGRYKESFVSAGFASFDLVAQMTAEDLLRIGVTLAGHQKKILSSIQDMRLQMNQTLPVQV
The experiment in a line: KinaseProfiler enzyme profiling. The format is biochemical. Conditions: 100 nM. In outline:
as §1

A further series deals with T18, Pim-3(h) (Homo sapiens, UniProt Q86V86).
T18 construct: purchased Eurofins KinaseProfiler
Description: KinaseProfiler enzyme profiling. The format is biochemical. As to conditions: 100 nM. Summed up: as §1

The next series has as its target T19, Rsk1(h) (Homo sapiens, UniProt Q15418).
T19 construct: purchased Eurofins KinaseProfiler
Description: KinaseProfiler enzyme profiling. In kind it is biochemical. Summed up: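 Duplicate in vitro measurements were made for each of 70 profiled kinases exposed to erianin at a fixed 100 nM.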

In a further series the target is T20, Wee1(h) (Homo sapiens, UniProt P30291).
T20 construct: purchased Eurofins KinaseProfiler
The experiment in a line: KinaseProfiler enzyme profiling. In kind it is biochemical. As to conditions: 100 nM. Summed up:
as §1

The next series is described as follows: Pharmacokinetic assay. In kind it is in vivo, Kunming mice. Conditions: Kunming, mouse, plasma; oral gavage 50 mg/kg vs tail vein injection 25 mg/kg. An excerpt:
For pharmacokinetic study of erianin, LC-MS/MS was implemented to monitor the plasma concentration over times and associated parameters. Chromatographic separation was obtained on an ZORBAX SB-C18 column (3.5 μm, 3.0 × 100 mm). 85% acetonitrile was selected as the mobile phase. The conditions of ESI source were optimized as follows: Spray voltage 4000 V; nitrogen for dying with a flow rate of 11 L/min. Detect the selected reaction monitoring mode for quantification, m/z 315.0 > 180.8 for IS and m/z 319.1 > 150.9 for erianin, respectively. 2′-Hydroxy-4,4′,6′-trimethoxychalcone (500 ng/mL) was selected as internal standard. After the validation of standard curves (0.1, 1, 5, 10, 50, 100, 500, 800, and 1200 ng/mL for oral; 10, 50, 100, 500, 800, 1200, 2400, 4800, 9600 ng/mL for intravenous) and methods including selectivity, linearity, sensitivity, precision and stability, erianin was given to Kunming mice through oral gavage (50 mg/kg, n = 6) or tail vein injection (25 mg/kg, n = 4). A series of time points including 0, 0.083, 0.25, 0.5, 0.75, 1, 2, 3, 4, and 8 h were set for blood extraction. The pharmacokinetic parameters were analyzed using DAS 2.0. Absolute bioavailability (F%) = (AUCoral × Div)/(AUCiv × Doral) × 100%.

The test system of series [1] is SK-MEL-2, A375, SK-MEL-28, and HCT 116 cells. Description: Anchorage-independent cell growth assay. The format is cell-based, human. Conditions: both BRAF and RAS mutant cell lines. The method, then: The synergism and antagonism (CI value) were determined and analyzed using CompuSyn 1.0.
In another series the target is T21, ATR/ATRIP(h) (Homo sapiens, UniProt Q13535).
T21 construct: purchased Eurofins KinaseProfiler
Description: KinaseProfiler enzyme profiling. In kind it is biochemical. Summed up:
as §1

The target in a further series is T22, ErbB4(h) (Homo sapiens, UniProt Q15303).
T22 construct: purchased Eurofins KinaseProfiler
Description: KinaseProfiler enzyme profiling. In kind it is biochemical. Summed up:
as §1

Another series concerns the target T23, Lck(h) (Homo sapiens, UniProt P06239).
T23 construct: purchased Eurofins KinaseProfiler
Description: KinaseProfiler enzyme profiling. The format is biochemical. Summed up:
as §1

Another series has as its target T24, MAPKAP-K2(h) (Homo sapiens, UniProt P49137).
T24 construct: purchased Eurofins KinaseProfiler
Description: KinaseProfiler enzyme profiling. The format is biochemical. In outline:
as §1

For the next series, the target named is T25, NEK1(h) (Homo sapiens, UniProt Q96PY6).
T25 construct: purchased Eurofins KinaseProfiler
T25 sequence (Q96PY6 whole entry): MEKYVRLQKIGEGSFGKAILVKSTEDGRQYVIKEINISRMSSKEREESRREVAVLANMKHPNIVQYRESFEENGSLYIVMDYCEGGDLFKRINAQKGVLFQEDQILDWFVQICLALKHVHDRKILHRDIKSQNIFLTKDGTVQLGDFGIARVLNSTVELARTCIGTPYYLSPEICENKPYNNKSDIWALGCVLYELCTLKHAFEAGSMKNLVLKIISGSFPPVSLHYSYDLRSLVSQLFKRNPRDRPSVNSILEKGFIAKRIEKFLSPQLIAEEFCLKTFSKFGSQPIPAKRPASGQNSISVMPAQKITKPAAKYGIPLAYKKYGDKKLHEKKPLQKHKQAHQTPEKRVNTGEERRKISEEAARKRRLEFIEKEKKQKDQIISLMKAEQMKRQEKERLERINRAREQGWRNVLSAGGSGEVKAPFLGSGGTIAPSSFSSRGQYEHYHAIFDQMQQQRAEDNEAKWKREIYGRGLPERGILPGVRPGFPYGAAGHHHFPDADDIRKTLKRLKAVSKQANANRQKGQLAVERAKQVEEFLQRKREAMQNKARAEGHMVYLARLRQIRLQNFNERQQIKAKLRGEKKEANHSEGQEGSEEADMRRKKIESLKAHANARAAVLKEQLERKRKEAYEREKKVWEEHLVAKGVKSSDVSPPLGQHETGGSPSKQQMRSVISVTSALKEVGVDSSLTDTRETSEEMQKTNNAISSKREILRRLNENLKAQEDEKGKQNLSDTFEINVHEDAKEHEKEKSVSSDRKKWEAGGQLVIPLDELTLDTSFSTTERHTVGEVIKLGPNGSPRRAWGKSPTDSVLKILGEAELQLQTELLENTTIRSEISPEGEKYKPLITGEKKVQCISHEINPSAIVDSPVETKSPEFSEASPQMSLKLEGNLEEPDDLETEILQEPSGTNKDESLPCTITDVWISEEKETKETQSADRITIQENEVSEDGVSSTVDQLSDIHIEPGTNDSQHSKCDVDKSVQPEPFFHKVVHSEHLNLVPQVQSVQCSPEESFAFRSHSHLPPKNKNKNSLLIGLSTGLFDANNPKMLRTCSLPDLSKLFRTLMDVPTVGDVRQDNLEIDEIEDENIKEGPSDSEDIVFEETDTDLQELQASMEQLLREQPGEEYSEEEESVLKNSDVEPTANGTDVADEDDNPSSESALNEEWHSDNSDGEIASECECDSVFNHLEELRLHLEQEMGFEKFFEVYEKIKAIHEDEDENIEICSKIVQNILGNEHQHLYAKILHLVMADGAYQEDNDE
The experiment in a line: KinaseProfiler enzyme profiling. In kind it is biochemical. Summed up:
as §1

T24 sequence (P49137 whole entry): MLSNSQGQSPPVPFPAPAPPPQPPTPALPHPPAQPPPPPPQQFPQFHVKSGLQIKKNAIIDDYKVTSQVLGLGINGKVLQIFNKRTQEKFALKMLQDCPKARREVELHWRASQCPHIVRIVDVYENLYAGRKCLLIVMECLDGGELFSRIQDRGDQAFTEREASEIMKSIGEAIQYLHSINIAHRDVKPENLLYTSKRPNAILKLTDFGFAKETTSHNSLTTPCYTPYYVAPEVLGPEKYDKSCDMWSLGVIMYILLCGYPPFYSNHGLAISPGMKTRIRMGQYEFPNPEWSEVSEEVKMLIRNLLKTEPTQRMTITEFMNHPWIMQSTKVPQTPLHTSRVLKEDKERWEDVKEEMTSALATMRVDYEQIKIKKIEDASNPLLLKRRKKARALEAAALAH
T1 sequence (O60285 whole entry): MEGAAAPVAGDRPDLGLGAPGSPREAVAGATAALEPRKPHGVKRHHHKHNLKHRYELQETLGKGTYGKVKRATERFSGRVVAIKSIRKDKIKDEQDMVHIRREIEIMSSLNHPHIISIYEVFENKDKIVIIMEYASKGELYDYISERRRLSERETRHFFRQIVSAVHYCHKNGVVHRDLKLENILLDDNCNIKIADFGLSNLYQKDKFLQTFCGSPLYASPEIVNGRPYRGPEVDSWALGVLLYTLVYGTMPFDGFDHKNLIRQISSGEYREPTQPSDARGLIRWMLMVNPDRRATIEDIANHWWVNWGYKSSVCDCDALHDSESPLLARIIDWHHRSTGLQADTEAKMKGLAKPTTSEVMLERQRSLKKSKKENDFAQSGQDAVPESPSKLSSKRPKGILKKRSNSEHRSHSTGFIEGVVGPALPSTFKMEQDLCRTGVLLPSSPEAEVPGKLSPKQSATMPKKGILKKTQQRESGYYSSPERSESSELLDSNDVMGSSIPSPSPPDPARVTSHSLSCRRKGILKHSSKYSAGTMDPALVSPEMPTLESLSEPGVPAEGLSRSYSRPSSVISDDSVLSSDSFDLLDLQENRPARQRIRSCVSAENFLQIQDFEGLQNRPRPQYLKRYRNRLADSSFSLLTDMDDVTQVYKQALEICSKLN
T2 sequence (O14965 whole entry): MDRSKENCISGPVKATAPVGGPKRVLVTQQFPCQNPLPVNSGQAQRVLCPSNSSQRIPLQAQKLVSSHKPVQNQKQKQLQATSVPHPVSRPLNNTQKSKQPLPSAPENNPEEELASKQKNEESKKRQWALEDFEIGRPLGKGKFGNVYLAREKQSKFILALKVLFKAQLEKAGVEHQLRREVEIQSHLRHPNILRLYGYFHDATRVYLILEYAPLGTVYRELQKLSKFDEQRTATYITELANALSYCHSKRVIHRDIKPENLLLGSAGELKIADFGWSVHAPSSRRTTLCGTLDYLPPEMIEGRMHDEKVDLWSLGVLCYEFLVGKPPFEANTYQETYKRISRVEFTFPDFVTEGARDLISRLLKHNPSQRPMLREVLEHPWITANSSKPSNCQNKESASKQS

Regarding `COc1cc2oc(-c3ccc(O)c(O)c3)cc(=O)c2c(O)c1OC` [Cirsiliol], the activity at 10 µM at ARK5(h) turned out to be 97%; on Aurora-A(h), 124%; on Aurora-B(h), 86%; on Bmx(h), 89%; at CDK7/cyclinH(h) it was 92%; on CK2(h) it was 84%. Moreover, the activity at 10 µM stood at 103% at DAPK1(h); 106% on DDR2(h); 117% on EGFR(T790M)(h); 98% at EphB2(h); 110% on FGFR2(h); 98% at FGFR3(h). Besides, the activity at 10 µM was 101% on MKK4(m) and 109% on Mer(h). This compound registered an Activity % in the series on CK1(y) of 95%.
Regarding `COc1ccc(CCc2cc(OC)c(OC)c(OC)c2)cc1O` [Erianin], the activity at 0.1 µM was 102% on CDK5/p25(h); 93% on EphA4(h); 95% at EphB3(h); 91% on Pim-3(h); 90% on Rsk1(h); 111% on Wee1(h). For the same compound, in the series “Pharmacokinetic assay”, the bioavailability amounted to 8 ± 1.1%. The colonies formation entry in [1] is listed as “markedly suppress”.
Turning to `C=C1C(=O)[C@]23[C@H](O)[C@H]1CC[C@H]2[C@@]12CO[C@]3(O)[C@@H](O)[C@@H]1C(C)(C)CC[C@@H]2O` [Oridonin], the activity at 10 µM on ATR/ATRIP(h) turned out to be 76%; at ErbB4(h), 91%; on Lck(h) it was 89%; on MAPKAP-K2(h) it was 85%; at NEK1(h) it was 77%.
